Where two headings read alike, the source gives them in different places.
Key:
[1] = Plasma pharmacokinetics of AZD5363 after a single dose and multiple doses; type: in vivo, human; settings: for AUC / Cmax / Vd/F / C ss,max: geometric mean (CV%); for Tmax / t ss,max / t half: median (range); for Vd/F: read-out: V ss/F
Text: […] area under the plasma concentration–time curve (AUC), maximum plasma (peak) drug concentration (Cmax), time to reach Cmax (tmax), apparent plasma clearance (CL/F), and oral volume of distribution at steady state (Vss/F).

[2] = tested on: Western patients with advanced solid malignancies; parameters: method as in earlier work; settings: 4/3 dosing schedule; cited from earlier work
[3] = tested on: Japanese patients with advanced solid malignancies
Protocol: This was a phase 1, open-label, multicenter, dose escalation study. […] All doses were required to be taken in a fasted state (no caloric intake from 2 h before dosing to 1 h after dosing).
All evaluations during the bid dosing regimen were conducted in 21-day assessment cycles. Patients were enrolled to ensure a minimum of three and a maximum of six evaluable patients per cohort. Dose escalation and de-escalation were determined by the number of dose-limiting toxicities (DLTs; defined as any toxicity related to study drug as assessed by the investigator and not attributable to the disease under investigation) in a cohort. […] If one patient in a group of […] evaluable patients experienced a DLT, the cohort was expanded to include six evaluable patients. […] If ≥2 patients in a group of up to six evaluable patients experienced a DLT, irrespective of the number of patients enrolled, the dose was considered not tolerated and recruitment to the cohort and dose escalation was ceased. De-escalation to a lower intermediary dose could be considered in order to better define the MTD.
Based on emerging clinical data from the continuous dosing regimen of this study and data from the Western Study 1 (D3610C00001, NCT01226316), which was running in parallel with the Japanese study, an intermittent dosing regimen was also evaluated in Japanese patients and with a starting dose of 480 mg bid and a 4/3 dosing schedule.
Safety and tolerability were assessed in terms of adverse events (AEs), serious adverse events (SAEs), deaths, laboratory data, vital signs, electrocardiogram (ECG), assessment of glucose metabolism, and physical examination. AEs were graded according to the Common Terminology Criteria for Adverse Events (CTCAE) version 4.0. Any AE occurring after the first dose of study treatment and within 30 days of the last dose of study treatment was included in the AE summaries.

[4] = human, plasma, oral, single dose, 80 mg bid continuous cohort, n=3
[5] = human, plasma, oral, single dose, 240 mg bid continuous cohort, n=7
[6] = human, plasma, oral, single dose, 320 mg bid continuous cohort, n=6
[7] = human, plasma, oral, single dose, 360 mg bid intermittent 4/3 cohort, n=8
[8] = human, plasma, oral, single dose, 400 mg bid continuous cohort, n=5
[9] = human, plasma, oral, single dose, 480 mg bid intermittent 4/3 cohort, n=6
[10] = human, plasma, oral, single dose, 640 mg bid intermittent 2/5 cohort, n=6
[11] = human, plasma, oral, single dose, Total, n=41
[12] = multiple doses, 80 mg bid continuous, n=3
[13] = multiple doses, 240 mg bid continuous, n=7
[14] = multiple doses, 320 mg bid continuous, n=4
[15] = multiple doses, 360 mg bid intermittent 4/3, n=7
[16] = multiple doses, 400 mg bid continuous, n=4
[17] = multiple doses, 480 mg bid intermittent 4/3, n=6
[18] = multiple doses, 640 mg bid intermittent 2/5, n=6

## NC1(C(=O)N[C@@H](CCO)c2ccc(Cl)cc2)CCN(c2ncnc3[nH]ccc23)CC1 [AZD5363]
[1]; human, plasma, oral, 80 mg, multiple doses, 80 mg bid continuous, n=3, read-out: AUCss
  AUC: 1520 ng·h/mL
[1]; human, plasma, oral, 80 mg, single dose, 80 mg bid continuous cohort, n=3, read-out: AUC
  AUC: 1260 ng·h/mL
[1]; human, plasma, oral, 240 mg, multiple doses, 240 mg bid continuous, n=7, read-out: AUCss
  AUC: 4840 ng·h/mL
[1]; human, plasma, oral, 240 mg, single dose, 240 mg bid continuous cohort, n=7, read-out: AUC
  AUC: 3290 ng·h/mL
[1]; human, plasma, oral, 320 mg, multiple doses, 320 mg bid continuous, n=4, read-out: AUCss
  AUC: 5770 ng·h/mL
[1]; human, plasma, oral, 320 mg, single dose, 320 mg bid continuous cohort, n=6, read-out: AUC
  AUC: 7110 ng·h/mL
[1]; human, plasma, oral, 360 mg, multiple doses, 360 mg bid intermittent 4/3, n=7, read-out: AUCss
  AUC: 5870 ng·h/mL
[1]; human, plasma, oral, 360 mg, single dose, 360 mg bid intermittent 4/3 cohort, n=8, read-out: AUC
  AUC: 4770 ng·h/mL
[1]; human, plasma, oral, 400 mg, multiple doses, 400 mg bid continuous, n=4, read-out: AUCss
  AUC: 9670 ng·h/mL
[1]; human, plasma, oral, 400 mg, single dose, 400 mg bid continuous cohort, n=5, read-out: AUC
  AUC: 4670 ng·h/mL
[1]; human, plasma, oral, 480 mg, multiple doses, 480 mg bid intermittent 4/3, n=6, read-out: AUCss
  AUC: 10900 ng·h/mL
[1]; human, plasma, oral, 480 mg, single dose, 480 mg bid intermittent 4/3 cohort, n=6, read-out: AUC
  AUC: 7210 ng·h/mL
[1]; human, plasma, oral, 640 mg, multiple doses, 640 mg bid intermittent 2/5, n=6, read-out: AUCss
  AUC: 14200 ng·h/mL
[1]; human, plasma, oral, 640 mg, single dose, 640 mg bid intermittent 2/5 cohort, n=6, read-out: AUC
  AUC: 11400 ng·h/mL
[1]; human, plasma, oral, multiple doses, Total, n=37, read-out: AUCss
  AUC: 6820 ng·h/mL
[1]; human, plasma, oral, single dose, all cohorts, read-out: tmax
  Tmax: 1.98 h
[1]; [4]
  Cmax: 217 ng/mL
  Vd/F: 715 L
[1]; human, plasma, oral, single dose, 80 mg bid continuous cohort, n=3, read-out: t max
  Tmax: 2 h
[1]; [5]
  Cmax: 628 ng/mL
  Vd/F: 682 L
[1]; human, plasma, oral, single dose, 240 mg bid continuous cohort, n=7, read-out: t max
  Tmax: 1.9 h
[1]; [6]
  Cmax: 1580 ng/mL
  Vd/F: 370 L
[1]; human, plasma, oral, single dose, 320 mg bid continuous cohort, n=6, read-out: t max
  Tmax: 1.98 h
[1]; [7]
  Cmax: 1010 ng/mL
  Vd/F: 681 L
[1]; human, plasma, oral, single dose, 360 mg bid intermittent 4/3 cohort, n=8, read-out: t max
  Tmax: 1.99 h
[1]; [8]
  Cmax: 1060 ng/mL
  Vd/F: 777 L
[1]; human, plasma, oral, single dose, 400 mg bid continuous cohort, n=5, read-out: t max
  Tmax: 1.97 h
[1]; [9]
  Cmax: 1910 ng/mL
  Vd/F: 502 L
[1]; human, plasma, oral, single dose, 480 mg bid intermittent 4/3 cohort, n=6, read-out: t max
  Tmax: 1.02 h
[1]; [10]
  Cmax: 2100 ng/mL
  Vd/F: 587 L
[1]; human, plasma, oral, single dose, 640 mg bid intermittent 2/5 cohort, n=6, read-out: t max
  Tmax: 2.02 h
[1]; [11]
  Cmax: 1090 ng/mL
  Vd/F: 595 L
[1]; human, plasma, oral, single dose, Total, n=41, read-out: AUC
  AUC: 5180 ng·h/mL
[1]; human, plasma, single oral doses
  half-life: ~600 min
[1]; [12]
  C ss,max: 318.3 (128.4) ng/mL
  t ss,max: 1 (0.98‒1.97) hours
[1]; [13]
  C ss,max: 874.4 (89.7) ng/mL
  t ss,max: 1.98 (0.97‒3.9) hours
[1]; [14]
  C ss,max: 1222 (53.7) ng/mL
  t ss,max: 1.465 (0.92‒2.12) hours
[1]; [15]
  C ss,max: 1366 (64.9) ng/mL
  t ss,max: 0.98 (0.5‒2) hours
[1]; [16]
  C ss,max: 2094 (56.6) ng/mL
  t ss,max: 2 (0.93‒2) hours
[1]; [17]
  C ss,max: 2670 (36.7) ng/mL
  t ss,max: 1.99 (1‒2.05) hours
[1]; [18]
  C ss,max: 2618 (20.0) ng/mL
  t ss,max: 2.01 (2‒3.97) hours
[1]; multiple doses, Total, n=37
  C ss,max: 1430 (96.6) ng/mL
  t ss,max: 1.98 (0.5‒3.97) hours
[1]; multiple dosing, all cohorts
  t ss,max: 1.98 (0.50–3.97) hours
[1]; single and multiple doses, 80- to 640-mg doses
  dose proportionality of exposure: generally dose proportional
[1]; single dose, 80 mg bid continuous cohort, n=3
  t half: 11.8 (8.5‒12.2) hours
[1]; single dose, 240 mg bid continuous cohort, n=7
  t half: 10.2 (8.2‒10.9) hours
[1]; single dose, 320 mg bid continuous cohort, n=6
  t half: 9.7 (7.3‒10.6) hours
[1]; single dose, 360 mg bid intermittent 4/3 cohort, n=8
  t half: 9.7 (5.3‒11.1) hours
[1]; single dose, 400 mg bid continuous cohort, n=5
  t half: 9.6 (9.0‒13.0) hours
[1]; single dose, 480 mg bid intermittent 4/3 cohort, n=6
  t half: 9.3 (8.1‒11.6) hours
[1]; single dose, 640 mg bid intermittent 2/5 cohort, n=6
  t half: 10.1 (9.4‒13.7) hours
[1]; single dose, Total, n=41
  Tmax: 1.98 (0.87‒4.02) hours
  t half: 9.9 (5.3‒13.7) hours
[1]; single oral doses, generally lasting up to
  duration of distribution phase following Cmax: 6 to 8 h
[2]
  recommended dose for AZD5363 monotherapy: 480 mg bid
[3]; 80 mg bid continuous, n=3
  AE with outcome of death: Any: 0 (0.0) number (%) of patients
[3]; 240 mg bid continuous, n=7
  AE with outcome of death: Any: 0 (0.0) number (%) of patients
[3]; 320 mg bid continuous, n=6
  AE with outcome of death: Any: 0 (0.0) number (%) of patients
[3]; 360 mg bid intermittent 4/3, n=8
  AE with outcome of death: Any: 0 (0.0) number (%) of patients
[3]; 400 mg bid continuous, n=5
  AE with outcome of death: Any: 0 (0.0) number (%) of patients
[3]; 480 mg bid intermittent 4/3, n=6
  AE with outcome of death: Any: 0 (0.0) number (%) of patients
[3]; 640 mg bid intermittent 2/5, n=6
  AE with outcome of death: Any: 0 (0.0) number (%) of patients
[3]; Total, n=41
  AE with outcome of death: Any: 0 (0.0) number (%) of patients
[3]; either of the intermittent dosing schedules
  MTD: not reached
[3]; human, in vivo
  AEs of CTCAE grade ≥3: Any: 26 (63.4) number (%) of patients
  AEs of CTCAE grade ≥3: Diarrhea: 7 (17.1) number (%) of patients
  AEs of CTCAE grade ≥3: Hyperglycemia: 16 (39.0) number (%) of patients
  AEs of CTCAE grade ≥3: Lymphocyte count decreased: 3 (7.3) number (%) of patients
  AEs of CTCAE grade ≥3: Neutrophil count decreased: 4 (9.8) number (%) of patients
  AEs: Blood creatinine increased: 14 (34.1) number (%) of patients
  AEs: Decreased appetite: 20 (48.8) number (%) of patients
  AEs: Diarrhea: 32 (78.0) number (%) of patients
  AEs: Hyperglycemia: 28 (68.3) number (%) of patients
  AEs: Maculopapular rash: 23 (56.1) number (%) of patients
  AEs: Nausea: 23 (56.1) number (%) of patients
  AEs: Proteinuria: 16 (39.0) number (%) of patients
  AEs: Pyrexia: 20 (48.8) number (%) of patients
  AEs: Stomatitis: 17 (41.5) number (%) of patients
  AEs: White blood cell count decreased: 13 (31.7) number (%) of patients
  Adverse events (AEs): Any: 40 (97.6) number (%) of patients
  SAE: Any: 3 (7.3) number (%) of patients
  patients who experienced an AE of CTCAE grade ≥3: 63.4%
  patients who experienced at least one AE: 97.6%
  patients with AE diarrhea: 78.0%
  patients with AE hyperglycemia: 68.3%
  patients with AE maculopapular rash: 56.1%
  patients with AE nausea: 56.1%
  patients with AEs leading to dose interruption: 39.0%
  patients with CTCAE grade ≥3 diarrhea: 17.1%
  patients with CTCAE grade ≥3 hyperglycemia: 39.0%
  patients with a grade ≥3 AE considered to be treatment related: 58.5%
  patients with discontinuation due to an AE: 12.2%
[3]; in vivo
  DLTs reported: No DLTs
  patients who experienced DLTs: five
  patients who experienced an SAE: Three
[3]; overall, all cohorts
  deaths related to AEs: no deaths
